From the supplement of paper PMC10307832

compound: CC1=CC(=CC=C1)NC2=NC(=CS2)C3=CC=NC=C3 + CC(=O)Nc1cccc(-n2c(=O)n(C3CC3)c(=O)c3c(Nc4ccc(I)cc4F)n(C)c(=O)c(C)c32)c1 [Trametinib] (partner 0.02 µM); assay: relative viability (nuclei count vs DMSO), 5 days (fraction); higher = more cells survive; settings: first compound 0.08 µM
In short: (§1)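 Each reported value is a median over duplicate plates. It expresses relative viability: treated-well nuclei count divided by vehicle-well nuclei count. Lung cancer cell lines in 1536-well plates were dosed by pin tool a day after seeding, alone with one drug or with a fixed anchor-drug dose plus five library-drug doses (not always all listed) in √10 steps, and nuclei were counted after 5 days.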

Compared with NCI-H1650, NCI-H1993 is lower in relative viability: 0.52 for the first, 0.514 for the second.

First: SK-LU-1
Second: NCI-H661
The relative viability of the first is higher: 0.479 for the first, 0.478 for the second.

RERF-LC-KJ was tested, and the relative viability was 0.953.

same assay, conditions: first compound 0.253 µM

Compared with NCI-H1650, NCI-H1993 is higher in relative viability: 0.319 for the first, 0.517 for the second.

Going from SK-LU-1 to NCI-H661, the relative viability rises from 0.492 to 0.583.

RERF-LC-KJ showed a relative viability of 0.734.

same assay, conditions: first compound 0.8 µM

Compared with NCI-H1650, NCI-H1993 is higher in relative viability: 0.555 for the first, 0.596 for the second.

Going from SK-LU-1 to NCI-H661, the relative viability rises from 0.361 to 0.579.

RERF-LC-KJ showed a relative viability of 0.735.

same assay, conditions: first compound 2.53 µM

Going from NCI-H1650 to NCI-H1993, the relative viability falls from 0.429 to 0.348.

Going from SK-LU-1 to NCI-H661, the relative viability falls from 0.568 to 0.54.

For RERF-LC-KJ, the relative viability was 0.703.

same assay, conditions: first compound 8 µM

Going from NCI-H1650 to NCI-H1993, the relative viability rises from 0.333 to 0.461.

First: SK-LU-1
Second: NCI-H661
The relative viability of the first is lower: 0.351 for the first, 0.48 for the second.

RERF-LC-KJ showed a relative viability of 0.645.

compound: CC1=CC(=CC=C1)NC2=NC(=CS2)C3=CC=NC=C3 + Nc1ncn([C@H]2C[C@H](O)[C@@H](CO)O2)c(=O)n1 [Decitabine] (partner 2 µM); assay: as above; settings: first compound 0.08 µM
In short: as §1

Compared with NCI-H1650, NCI-H1993 is higher in relative viability: 0.384 for the first, 0.565 for the second.

Compared with SK-LU-1, NCI-H661 is lower in relative viability: 0.624 for the first, 0.514 for the second.

Work on RERF-LC-KJ yielded a relative viability of 0.675.

same assay, conditions: first compound 0.253 µM

Going from NCI-H1650 to NCI-H1993, the relative viability rises from 0.38 to 0.561.

First: SK-LU-1
Second: NCI-H661
The relative viability of the first is higher: 0.625 for the first, 0.585 for the second.

RERF-LC-KJ showed a relative viability of 0.64.

same assay, conditions: first compound 0.8 µM

First: NCI-H1650
Second: NCI-H1993
The relative viability of the first is lower: 0.478 for the first, 0.483 for the second.

Going from SK-LU-1 to NCI-H661, the relative viability falls from 0.563 to 0.556.

With RERF-LC-KJ the relative viability was 0.62.

same assay, conditions: first compound 2.53 µM

Going from NCI-H1650 to NCI-H1993, the relative viability rises from 0.408 to 0.485.

Going from SK-LU-1 to NCI-H661, the relative viability falls from 0.617 to 0.505.

With RERF-LC-KJ the relative viability was 0.522.

same assay, conditions: first compound 8 µM

First: NCI-H1650
Second: NCI-H1993
The relative viability of the first is lower: 0.378 for the first, 0.502 for the second.

Going from SK-LU-1 to NCI-H661, the relative viability falls from 0.726 to 0.533.

RERF-LC-KJ gave a relative viability of 0.387.

compound: Cc1ccc(NC(=O)c2ccc(CN3CCN(C)CC3)cc2)cc1Nc1nc(-c2cccnc2)cs1 [Masitinib] + C[C@@H](Oc1cc(-c2cnn(C3CCNCC3)c2)cnc1N)c1c(Cl)ccc(F)c1Cl [Crizotinib] (partner 1 µM); assay: as above; settings: first compound 0.01 µM
In short: as §1

First: NCI-H1650
Second: NCI-H1993
The relative viability of the first is higher: 0.958 for the first, 0.942 for the second.

Compared with SK-LU-1, NCI-H661 is lower in relative viability: 0.832 for the first, 0.737 for the second.

For RERF-LC-KJ, the relative viability was 0.853.

same assay, conditions: first compound 0.03162 µM

First: NCI-H1650
Second: SK-LU-1
The relative viability of the first is higher: 1.09 for the first, 0.884 for the second.

Going from NCI-H661 to RERF-LC-KJ, the relative viability falls from 1.2 to 0.901.

same assay, conditions: first compound 0.1 µM

Going from NCI-H1650 to NCI-H1993, the relative viability rises from 0.876 to 0.883.

First: SK-LU-1
Second: NCI-H661
The relative viability of the first is higher: 0.983 for the first, 0.964 for the second.

RERF-LC-KJ gave a relative viability of 0.79.

same assay, conditions: first compound 0.3162 µM

First: NCI-H1650
Second: NCI-H1993
The relative viability of the first is higher: 0.862 for the first, 0.755 for the second.

Compared with SK-LU-1, NCI-H661 is lower in relative viability: 1.01 for the first, 0.93 for the second.

With RERF-LC-KJ the relative viability was 0.755.

same assay, conditions: first compound 1 µM

Going from NCI-H1650 to NCI-H1993, the relative viability falls from 1.02 to 0.718.

Going from SK-LU-1 to NCI-H661, the relative viability rises from 0.756 to 0.844.

With RERF-LC-KJ the relative viability was 0.759.

compound: CC1=CC(=CC=C1)NC2=NC(=CS2)C3=CC=NC=C3 + CC(C)C[C@H](NC(=O)[C@H](Cc1ccccc1)NC(=O)c1cnccn1)B(O)O [Bortezomib] (partner 0.002 µM); assay: as above; settings: first compound 0.08 µM
In short: as §1

First: NCI-H1650
Second: NCI-H1993
The relative viability of the first is lower: 0.194 for the first, 1 for the second.

Compared with SK-LU-1, NCI-H661 is lower in relative viability: 0.905 for the first, 0.864 for the second.

With RERF-LC-KJ the relative viability was 0.963.

same assay, conditions: first compound 0.253 µM

Compared with NCI-H1650, NCI-H1993 is higher in relative viability: 0.193 for the first, 1.03 for the second.

Going from SK-LU-1 to NCI-H661, the relative viability falls from 1.07 to 0.862.

Cell Line RERF-LC-KJ has a relative viability of 1.07.

same assay, conditions: first compound 0.8 µM

Compared with NCI-H1650, NCI-H1993 is higher in relative viability: 0.213 for the first, 0.885 for the second.

Going from SK-LU-1 to NCI-H661, the relative viability falls from 0.884 to 0.759.

In the case of RERF-LC-KJ, the relative viability is reported as 0.786.

same assay, conditions: first compound 2.53 µM

First: NCI-H1650
Second: NCI-H1993
The relative viability of the first is lower: 0.213 for the first, 0.894 for the second.

Going from SK-LU-1 to NCI-H661, the relative viability falls from 1.3 to 0.653.

RERF-LC-KJ was tested, and the relative viability was 0.813.

same assay, conditions: first compound 8 µM

Compared with NCI-H1650, NCI-H1993 is higher in relative viability: 0.191 for the first, 0.993 for the second.

First: SK-LU-1
Second: NCI-H661
The relative viability of the first is higher: 1.19 for the first, 0.706 for the second.

With RERF-LC-KJ the relative viability was 0.7.
